Data published in article PMC7441487 (mBio, 2020).
Entries after “also recorded” stand apart in the source; their conditions may differ. Where two headings read alike, the source gives them in different places.

Experiments:
[1] = system: SARS-CoV-2^WK-521; assay: Immunocytochemistry, low-stringency assay (VeroE6 cells and SARS-CoV-2^WK-521); assay type: cell-based; conditions: VeroE6 cells; for Block of SARS-CoV-2^WK-521 infection (immunocytochemistry): overall statement over the concentrations tested
[2] = system: SARS-CoV-2^WK-521; assay: Immunocytochemistry, high-stringency assay (VeroE6^TMPRSS2 cells and SARS-CoV-2^WK-521); assay type: cell-based; conditions: VeroE6^TMPRSS2 cells; for Block of infectivity and cytopathic effect of SARS-CoV-2^WK-521 (immunocytochemistry): overall statement, Fig. 3B; for Observation by immunocytochemistry: 100 μM; for Antiviral effect seen by immunocytochemistry: 1 and 10 μM
[3] = system: SARS-CoV-2^WK-521; assay: Antiviral assay: viral RNA in culture supernatants by RNA-qPCR (RT-qPCR), VeroE6 cells; assay type: cell-based; conditions: for Selectivity index: ratio of CC50 to EC50, VeroE6 cells
[4] = system: VeroE6 cells; assay: Cytotoxicity, WST-8 assay (Cell Counting Kit-8); assay type: cell-based; conditions: concentrations up to 100 μM
[5] = Cytotoxicity, WST-8 assay (Cell Counting Kit-8); assay type: cell-based; conditions: African green monkey, VeroE6 cells
[6] = target: HIV-1 protease (Human immunodeficiency virus type 1 group M subtype B, UniProt P04585); assay: Thermal stability of HIV-1 protease by differential scanning fluorimetry (control); assay type: binding; conditions: HIV-1 protease 5 μM + 5 μM compound (1:1); protease alone 54.78°C
[7] = target: SARS-CoV-2 M^pro (Severe acute respiratory syndrome coronavirus 2, UniProt P0DTD1); assay: M^pro molecular weight analysis with HPLC/MS (covalent binding); conditions: 100 μM compound, 37°C, 30 min
[8] = system: SARS-CoV-2^WK-521; conditions: VeroE6 cells; 100 μM; 3 days
[9] = system: SARS-CoV-2; conditions: Calu-3 cells exposed to SARS-CoV-2; cited from earlier work
[10] = Severe acute respiratory syndrome coronavirus 2, Vero C1008, read-out: EC50 ±SD

SMILES	Observation by immunocytochemistry ([1]; 10 μM)	Observation by immunocytochemistry ([1]; 100 μM)	Block of SARS-CoV-2^WK-521 infection (immunocytochemistry) [1]	Block of infectivity and cytopathic effect of SARS-CoV-2^WK-521 (immunocytochemistry) [2]	EC50 [3, 10] [µM]	CC50 at 3 days [5] [µM]	Observation by immunocytochemistry [2]	Selectivity index [3]	further results
CCN(CC)CCCC(C)Nc1ccnc2cc(Cl)ccc12 (stereo not drawn) [Chloroquine, chloroquine]	slightly block infectivity	almost all the cells were shed from the wells	failed to block the infectivity	–	–	–	–	–	Observation by immunocytochemistry ([1]; 100 μM, listed as chloroquine): almost all VeroE6 cells were lost
NC(=O)c1nc(F)c[nH]c1=O [Favipiravir, favipiravir]	–	–	failed to block SARS-CoV-2 infection	failed to block the infection	> 100	> 100	–	–	Cytotoxicity (in words) [4]: nontoxic at all concentrations tested
CC(C)CN(C[C@@H](O)[C@H](Cc1cc(F)cc(F)c1)NC(=O)O[C@H]1C2COC3OCC1C3C2)S(=O)(=O)c1ccc2nc(NC3CC3)sc2c1 (stereo partly drawn) [GRL-142]	–	–	–	–	–	–	–	–	Tm of HIV-1 protease [6]: 87.13 °C
C=CCn1ccc2c(C(=O)Oc3cncc(Cl)c3)cccc21 [GRL-0820]	–	–	permitted viral breakthrough	potently blocked; also recorded: permitted viral breakthrough	23 ± 5	> 100	viral breakthrough had occurred	>4.3	EC50 ([3]; Severe acute respiratory syndrome coronavirus 2, Vero C1008, read-out: Anti-SARS-CoV-2 EC50): 15 ± 18 µM; Increase of the mass of M^pro [7]: 183.85 amu; Average mass of the major M^pro species with compound ([7]; TOF MS): 34,037.21
O=C(Oc1cncc(Cl)c1)c1cccc2[nH]ccc12 [GRL-0920]	further suppression of viral replication	completely blocked; also recorded: complete	completely blocked the infectivity	potently blocked; also recorded: completely blocked	8.6 ± 2.8	> 100	essentially no infected cells seen	–	Protection of virus-exposed cells (light microscopy) [8]: appeared to be protected
CCN(CCO)CCCC(C)Nc1ccnc2cc(Cl)ccc12 (stereo not drawn) [Hydroxychloroquine, hydroxychloroquine]	slightly block infectivity	almost all the cells were shed from the wells; also recorded: virtually no cells were left	did not exert significant antiviral activity; also recorded: failed to block the infectivity	–	5.1 ± 3.4	> 100	–	>20	Cytotoxicity (in words) [4]: nontoxic at up to 100 μM
Cc1cccc(C)c1OCC(=O)N[C@@H](Cc1ccccc1)[C@@H](O)C[C@H](Cc1ccccc1)NC(=O)[C@H](C(C)C)N1CCCNC1=O [Lopinavir, lopinavir]	–	–	failed to block SARS-CoV-2 infection	failed to block the infection	19 ± 8	51 ± 5	most of the cells were lost	2.7	Antiviral effect seen by immunocytochemistry [2]: no detectable antiviral activity
N=C(N)c1ccc2cc(OC(=O)c3ccc(N=C(N)N)cc3)ccc2c1 [Nafamostat, nafamostat]	–	–	inactive against the virus	–	–	> 100	–	–	EC50 [9]: 5 nM; Cytotoxicity seen in immunocytochemistry [1]: did not exert significant toxicity; also recorded: not significantly cytotoxic; Block of SARS-CoV-2^WK-521 infection (immunocytochemistry) ([1]; listed as nafamostat): did not exert significant antiviral activity; also recorded: failed to block SARS-CoV-2 infection; Cytotoxicity (in words) [4]: nontoxic at all concentrations tested
Cc1c(O)cccc1C(=O)N[C@@H](CSc1ccccc1)[C@H](O)CN1C[C@H]2CCCC[C@H]2C[C@H]1C(=O)NC(C)(C)C [Nelfinavir, nelfinavir]	–	–	failed to block SARS-CoV-2 infection	failed to block the infection	3.1	53 ± 8	most of the cells were lost	17	Antiviral effect seen by immunocytochemistry [2]: no detectable antiviral activity
CC(=O)Oc1ccccc1C(=O)Nc1ncc([N+](=O)[O-])s1 [Nitazoxanide, nitazoxanide]	–	only a few nuclei remained	did not block the infectivity	–	31 ± 6	88 ± 3	–	2.8	Observation by immunocytochemistry ([1]; 1 and 10 μM): did not exert activity against the virus
CCC(CC)COC(=O)[C@H](C)N[P@](=O)(OC[C@H]1O[C@@](C#N)(c2ccc3c(N)ncnn23)[C@H](O)[C@@H]1O)Oc1ccccc1 [Remdesivir, remdesivir]	further suppression of viral replication	nearly complete	significantly blocked SARS-CoV-2 infection but allowed viral breakthrough	potently blocked; also recorded: permitted viral breakthrough	1.2 ± 0.06	> 100	essentially no infected cells seen	>83	Protection of virus-exposed cells (light microscopy) [8]: appeared to be protected
